These results are taken from US20030228642A1, “Crohn's disease treatment and efficacy prediction methods” (priority 2002, published 2003).

Data set [1] relates to M. para. isolated from resected tissue of CD patients. In words: in vitro test of seven antituberculosis drugs against M. para. (Bactec system). More on the design: key to Status: R, resistant; S, sensitive. It is filed as cell-based, Mycobacterium paratuberculosis. The settings on record: for IC99.9: 99.9% M. para. cells inhibited or killed, Bactec system, combinations given as drug:drug, read-out: MIC99.9; for Status: M. para. resistant or sensitive to the drug.

Data set [2] relates to Crohn's disease. The note with it: cited from earlier work.
Data set [3] deals with Crohn's disease. In words: comparison of age-matched MAP-positive and MAP-negative patients at 1 year (CDAI). The format is in vivo, human. The note with it: patients unresponsive to antibiotics, MAP-negative group. The source says: Another study was undertaken to compare age-matched MAP-positive and -negative patients utilizing ELISA analysis for serum antibodies to MAP. 10 MAP-positive and 10 MAP-negative patients were compared at 1 year, utilizing the CDAI score as a primary endpoint. The elimination of corticosteroids and the need for immunotherapy were considered secondary endpoints. The MAP-positive patients achieved complete remission in 9 out of the 10 cases, with entry CDAI score of 285 and exit score of 111. Steroids were eliminated in 8 of 10 patients, with 2 patients requiring low-dose steroids. In the MAP-negative group at 1 year, 6 of 10 patients were in complete remission, with an entry CDAI score of 308 and an exit score of 179. Of the responsive patients, 3 of 6 required additional immunotherapy, and 3 remained on antibiotics alone.

With `CC[C@H]1OC(=O)[C@H](C)[C@@H](O[C@H]2C[C@@](C)(OC)[C@@H](O)[C@H](C)O2)[C@H](C)[C@@H](O[C@@H]2O[C@H](C)C[C@H](N(C)C)[C@H]2O)[C@](C)(OC)C[C@@H](C)C(=O)[C@H](C)[C@@H](O)[C@]1(C)O` [CLR, clarithromycin], in data set [1], the IC99.9 is < 1.25 µg/mL and the Status entry was “S”.

As for `CC[C@@H](CO)NCCN[C@@H](CC)CO` [EMB, ethambutol], in data set [1], the IC99.9 is < 3 µg/mL and the Status result is “S”.

Consider `NNC(=O)c1ccncc1` [INH, isoniazid], for which, in data set [1], the IC99.9 was > 20 µg/mL and the Status entry is on record as “R”.

As for `NC[C@H]1O[C@H](O[C@H]2[C@H](O)[C@@H](O[C@H]3O[C@H](CO)[C@@H](O)[C@H](N)[C@H]3O)[C@H](N)C[C@@H]2N)[C@H](O)[C@@H](O)[C@@H]1O` [KM, kanamycin], in data set [1], the IC99.9 is < 3 µg/mL and the Status entry is “R”.

Regarding `NC(=O)c1cnccn1` [PZA, pyrazinamide], in data set [1], the IC99.9 was > 20 µg/mL and the Status result is on record as “R”.

On to `CO[C@H]1/C=C/O[C@@]2(C)Oc3c(C)c(O)c4c(O)c(c(/C=N/N5CCN(C)CC5)c(O)c4c3C2=O)NC(=O)/C(C)=C\C=C\[C@H](C)[C@H](O)[C@@H](C)[C@@H](O)[C@@H](C)[C@H](OC(C)=O)[C@@H]1C` [RIF, Rifampicin], for which, in data set [1], the IC99.9 was > 2.6 µg/mL and the Status entry was “R”.

Regarding `[H]/N=C(/N)N[C@H]1[C@H](O)[C@@H](O)[C@H](O[C@@H]2O[C@@H](C)[C@](O)(C=O)[C@H]2O[C@@H]2O[C@@H](CO)[C@H](O)[C@@H](O)[C@@H]2NC)[C@@H](N/C(N)=N\[H])[C@@H]1O` [ST, streptomycin], in data set [1], the IC99.9 was > 3 µg/mL and the Status entry is on record as “R”.

On to “infliximab: a monoclonal chimeric antibody to tumor necrosis factor α (TNF-α)”, for which the “benefit of every 8-week administration” value in data set [2] (over 550 patients with CD, preliminary trial results) is “maintenance of remission and improved quality of life”. Further, the “complications of the immunosuppresive effects” value in data set [2] (patients treated for CD and rheumatoid arthritis) is on record as “Documented cases of miliary tuberculosis”. Further, in data set [3], the induction of remission result is recorded as “induction of remission in all patients”.
